# Measurements: patent publication US11324821B2, “Triterpene saponin analogues” (ADJUVANCE TECHNOLOGIES, INC., priority 2017, dated 2022)
# “And” between values parts separate entries of the source, which are not always exact repeats. Equal values may be shown once.
# Tests used:
# Assay type in all cases: in vivo, mice
# CD4 enriched = experiment: ELISPOT, CD4 enriched cells, combined responses to GB208_1, _4, _8; details: re-stimulation overlapping peptides 20 μg/ml
# Method: (§1) The impact of synthetic TQL-1055 (Compound I-4) on CD4 and CD8 T cell responses to peptides was tested in mice as a single adjuvant and in combination with Genocea Biosciences GEN-AS2 adjuvant and sGenocea Biosciences GEN-AS3 adjuvant according to the plan in the table below. The GEN-AS2 and GEN-AS3 adjuvant are TLR agonist-based adjuvant systems. Specific peptides tested include Genocea synthetic long peptides (SLPs) GB208_1, GB208_4, GB208_8, which are tumor-specific T cell antigens identified by neo-antigen screening, however the results are expected to replicate to other types of peptides. Combinations including an adjuvant composition with the SLPs were administered to mice via s.c. scruff according to the plan below. Injections were administered to groups according to the plan in the table below. Responses in mice were measured seven (7) or fourteen (14) days after the final injection.
# (§2) T cell responses were measured by the following ELISPOT analyses: • 1. Total splenocytes: • a. Combined responses to GB208_1, _4, _8; re-stimulation with overlapping peptides (OLPs) at 10 μg/ml; • b. Responses to GB208_1; re-stimulation GB208_1 at 10 μg/ml; • c. Responses to GB208_4; re-stimulation GB208_4 at 10 μg/ml; • d. Responses to GB208_8; re-stimulation GB208_8 at 10 μg/ml; • 2. CD4 enriched: combined responses to GB208_1, _4, _8; re-stimulation with overlapping peptides at 20 μg/ml; and • 3. CD8 enriched: combined responses to GB208_1, _4, _8; re-stimulation with overlapping peptides at 20 μg/ml. Specific resulting data is shown in FIGS. 2-8 and in the tables below.
# (§3) The values in Tables 3g-h results are spot forming units per 500,000 cells. A value of 2000 was used if spots exceeded the upper limit of detection.
# CD8 enriched = experiment: ELISPOT, CD8 enriched cells, combined responses to GB208_1, _4, _8; details: re-stimulation overlapping peptides 20 μg/ml
# Method: as §1, §2, §3
# GB208_1, _4, _8 [1] = experiment: Endpoint titer, total IgG response to GB208_1, _4, _8; details: FIG. 7, total IgG endpoint titer
# Method: FIG. 7 depicts data showing enpoint titer data for total IgG response to GB208_1, _4, _8 for each group tested in Example 2.
# as §1
# GB208_8 = experiment: INFγ ELISPOT, total splenocytes, responses to GB208_8; details: re-stimulation GB208_8 10 μg/ml, per mouse
# Method: as §1, §2
# (§4) The values in Tables 3a-f results are spot forming units per 800,000 cells. A value of 2000 was used if spots exceeded the upper limit of detection. All groups had n=5, except groups 1, 2, and 3, which had four mice in each group.
# GB208_4 = experiment: INFγ ELISPOT, total splenocytes, responses to GB208_4; details: re-stimulation GB208_4 10 μg/ml, per mouse
# Method: as §1, §2, §4
# GB208_1 = experiment: INFγ ELISPOT, total splenocytes, responses to GB208_1; details: re-stimulation GB208_1 10 μg/ml, per mouse
# Method: as §1, §2, §4
# GB208_1, _4, _8 [2] = experiment: INFγ ELISPOT, total splenocytes, combined responses to GB208_1, _4, _8 (overlapping peptides); details: re-stimulation OLPs 10 μg/ml, per mouse
# Method: as §1, §2, §4
# [3] = Group 2: no antigen, 50 μg TQL-1055, days 0, 7
# [4] = Group 5: 150 μg SLPs + 10 μg TQL-1055, days 0, 7
# [5] = Group 6: 150 μg SLPs + 25 μg TQL-1055, days 0, 7
# [6] = Group 7: 150 μg SLPs + 50 μg TQL-1055, days 0, 7
# [7] = Group 8: 150 μg SLPs + 100 μg TQL-1055, days 0, 7
# [8] = Group 11: 150 μg SLPs + 50 μg TQL-1055, days 0, 14
smiles,measurement,setting,value
CC1O[C@@H](OC2C(O)[C@@H](NC(=O)CCCCCCCCCCC(=O)O)C(CO)O[C@H]2OC(=O)[C@]23CCC(C)(C)CC2C2=CCC4C5(C)CC[C@H](O)C(C)(C=O)C5CCC4(C)[C@]2(C)CC3O)C(O)C(O)[C@H]1O[C@@H]1OC[C@@H](O)C(O)C1O (stereo partly shown) [TQL-1055],"CD4 Responses, OLP pool SLP 1, 4, 8",CD4 enriched; [3],"0 spot forming units per 500,000 cells"
same,"CD4 Responses, OLP pool SLP 1, 4, 8",CD4 enriched; [4],"48.5 spot forming units per 500,000 cells"
same,"CD4 Responses, OLP pool SLP 1, 4, 8",CD4 enriched; [5],"149.5 spot forming units per 500,000 cells"
same,"CD4 Responses, OLP pool SLP 1, 4, 8",CD4 enriched; [6],"88.5 spot forming units per 500,000 cells"
same,"CD4 Responses, OLP pool SLP 1, 4, 8",CD4 enriched; [7],"28.5 spot forming units per 500,000 cells"
same,"CD4 Responses, OLP pool SLP 1, 4, 8",CD4 enriched; [8],"79 spot forming units per 500,000 cells"
same,"CD8 Responses, OLP pool SLP 1, 4, 8",CD8 enriched; [3],"2.5 spot forming units per 500,000 cells"
same,"CD8 Responses, OLP pool SLP 1, 4, 8",CD8 enriched; [4],"6.5 spot forming units per 500,000 cells"
same,"CD8 Responses, OLP pool SLP 1, 4, 8",CD8 enriched; [5],"5 spot forming units per 500,000 cells"
same,"CD8 Responses, OLP pool SLP 1, 4, 8",CD8 enriched; [6],"5.5 spot forming units per 500,000 cells"
same,"CD8 Responses, OLP pool SLP 1, 4, 8",CD8 enriched; [7],"6.5 spot forming units per 500,000 cells"
same,"CD8 Responses, OLP pool SLP 1, 4, 8",CD8 enriched; [8],"3.5 spot forming units per 500,000 cells"
same,"antibody response for antibodies specific to GB208_1, _4, and _8 compared with GEN-AS3","GB208_1, _4, _8 [1]",in line with or better than GEN-AS3
same,SLP8-specific INFγ responses in splenocytes,GB208_8; [3],"0 spot forming units per 800,000 cells (3×) and 2 spot forming units per 800,000 cells"
same,SLP8-specific INFγ responses in splenocytes,GB208_8; [4],"0 spot forming units per 800,000 cells (2×) and 13 spot forming units per 800,000 cells and 15 spot forming units per 800,000 cells and 16 spot forming units per 800,000 cells"
same,SLP8-specific INFγ responses in splenocytes,GB208_8; [5],"21 spot forming units per 800,000 cells (2×) and 5 spot forming units per 800,000 cells and 53 spot forming units per 800,000 cells and 3 spot forming units per 800,000 cells"
same,SLP8-specific INFγ responses in splenocytes,GB208_8; [6],"29 spot forming units per 800,000 cells and 5 spot forming units per 800,000 cells and 55 spot forming units per 800,000 cells and 286 spot forming units per 800,000 cells and 20 spot forming units per 800,000 cells"
same,SLP8-specific INFγ responses in splenocytes,GB208_8; [7],"15 spot forming units per 800,000 cells and 0 spot forming units per 800,000 cells and 2 spot forming units per 800,000 cells and 29 spot forming units per 800,000 cells and 4 spot forming units per 800,000 cells"
same,SLP8-specific INFγ responses in splenocytes,GB208_8; [8],"59 spot forming units per 800,000 cells and 33 spot forming units per 800,000 cells and 93 spot forming units per 800,000 cells and 164 spot forming units per 800,000 cells and 136 spot forming units per 800,000 cells"
same,SLP4-specific INFγ responses in splenocytes,GB208_4; [3],"0 spot forming units per 800,000 cells"
same,SLP4-specific INFγ responses in splenocytes,GB208_4; [4],"31 spot forming units per 800,000 cells and 135 spot forming units per 800,000 cells and 21 spot forming units per 800,000 cells and 183 spot forming units per 800,000 cells and 72 spot forming units per 800,000 cells"
same,SLP4-specific INFγ responses in splenocytes,GB208_4; [5],"102 spot forming units per 800,000 cells and 70 spot forming units per 800,000 cells and 431 spot forming units per 800,000 cells and 22 spot forming units per 800,000 cells and 169 spot forming units per 800,000 cells"
same,SLP4-specific INFγ responses in splenocytes,GB208_4; [6],"68 spot forming units per 800,000 cells and 23 spot forming units per 800,000 cells and 142 spot forming units per 800,000 cells and 93 spot forming units per 800,000 cells and 42 spot forming units per 800,000 cells"
same,SLP4-specific INFγ responses in splenocytes,GB208_4; [7],"30 spot forming units per 800,000 cells and 37 spot forming units per 800,000 cells and 19 spot forming units per 800,000 cells and 76 spot forming units per 800,000 cells and 78 spot forming units per 800,000 cells"
same,SLP4-specific INFγ responses in splenocytes,GB208_4; [8],"43 spot forming units per 800,000 cells and 96 spot forming units per 800,000 cells and 31 spot forming units per 800,000 cells and 258 spot forming units per 800,000 cells and 79 spot forming units per 800,000 cells"
same,SLP1-specific INFγ responses in splenocytes,GB208_1; [3],"0 spot forming units per 800,000 cells"
same,SLP1-specific INFγ responses in splenocytes,GB208_1; [4],"0 spot forming units per 800,000 cells (2×) and 4 spot forming units per 800,000 cells and 11 spot forming units per 800,000 cells and 5 spot forming units per 800,000 cells"
same,SLP1-specific INFγ responses in splenocytes,GB208_1; [5],"3 spot forming units per 800,000 cells and 4 spot forming units per 800,000 cells and 25 spot forming units per 800,000 cells and 12 spot forming units per 800,000 cells and 30 spot forming units per 800,000 cells"
same,SLP1-specific INFγ responses in splenocytes,GB208_1; [6],"3 spot forming units per 800,000 cells and 13 spot forming units per 800,000 cells and 4 spot forming units per 800,000 cells and 18 spot forming units per 800,000 cells and 25 spot forming units per 800,000 cells"
same,SLP1-specific INFγ responses in splenocytes,GB208_1; [7],"0 spot forming units per 800,000 cells and 5 spot forming units per 800,000 cells and 7 spot forming units per 800,000 cells and 29 spot forming units per 800,000 cells and 3 spot forming units per 800,000 cells"
same,SLP1-specific INFγ responses in splenocytes,GB208_1; [8],"3 spot forming units per 800,000 cells (2×) and 20 spot forming units per 800,000 cells and 94 spot forming units per 800,000 cells and 4 spot forming units per 800,000 cells"
same,"INFγ responses in splenocytes to SLPs 1, 4, 8","GB208_1, _4, _8 [2]; [3]","0.5 spot forming units per 800,000 cells (2×) and 2.5 spot forming units per 800,000 cells and 2 spot forming units per 800,000 cells"
same,"INFγ responses in splenocytes to SLPs 1, 4, 8","GB208_1, _4, _8 [2]; [4]","12.5 spot forming units per 800,000 cells and 20 spot forming units per 800,000 cells and 11 spot forming units per 800,000 cells and 115 spot forming units per 800,000 cells and 53 spot forming units per 800,000 cells"
same,"INFγ responses in splenocytes to SLPs 1, 4, 8","GB208_1, _4, _8 [2]; [5]","104.5 spot forming units per 800,000 cells and 39 spot forming units per 800,000 cells and 338 spot forming units per 800,000 cells and 12.5 spot forming units per 800,000 cells and 167.5 spot forming units per 800,000 cells"
same,"INFγ responses in splenocytes to SLPs 1, 4, 8","GB208_1, _4, _8 [2]; [6]","56 spot forming units per 800,000 cells and 32 spot forming units per 800,000 cells and 138 spot forming units per 800,000 cells and 139 spot forming units per 800,000 cells and 59.5 spot forming units per 800,000 cells"
same,"INFγ responses in splenocytes to SLPs 1, 4, 8","GB208_1, _4, _8 [2]; [7]","42.5 spot forming units per 800,000 cells and 22 spot forming units per 800,000 cells and 17 spot forming units per 800,000 cells and 74.5 spot forming units per 800,000 cells and 73 spot forming units per 800,000 cells"
same,"INFγ responses in splenocytes to SLPs 1, 4, 8","GB208_1, _4, _8 [2]; [8]","70 spot forming units per 800,000 cells and 85 spot forming units per 800,000 cells and 32.5 spot forming units per 800,000 cells and 319.5 spot forming units per 800,000 cells and 112 spot forming units per 800,000 cells"
